In patent US9718790B2, “Triazine derivative and pharmaceutical composition having an analgesic activity comprising the same” (SHIONOGI & CO., LTD., priority 2010, dated 2017):

Key:
[1] = system: partial sciatic nerve ligation model in rats; experiment: Analgesic effect in a Seltzer model, Evaluation (1): mechanical allodynia, von Frey filaments; format: in vivo; conditions: rat, oral single administration, at 3 hours, read-out: analgesic effect, percent reversal of mechanical allodynia
From the text: Rats were anaesthetized using isoflurane/O2 inhalation anaesthesia. After induction of anesthesia, the left thigh was shaved. An incision was made in the skin just below the hip bone. The muscle was bluntly dissected to expose the sciatic nerve. One third (⅓) to one half (½) of the sciatic nerve thickness was tightly ligated and the wound was closed. The right thigh is used as a sham-operated control. The right thigh undergoes an identical procedure with the left hind limb, however, the sciatic nerve is not manipulated or ligated.
Two weeks after nerve ligation, the effect on mechanical allodynia was assessed using a series of von Frey filaments. For habituation, the rats were placed into a plastic cage on a wire mesh bottom. The mechanical sensitivity (mechanical threshold) of the hind paws was estimated with a series of von Frey filaments (0.4-20 g). The measurement of mechanical sensitivity of the right and left hind paws was performed to obtain predose mechanical sensitivity. The rats showing thee threshold change from 0.6 to 2 g (in nerve ligated side) and 8 to 15 g (in sham operated side) were used in the experiments. On the day belone the experiment, the rats were evaluated with a series of von Frey filaments to familiarize them with the test procedure. The adopted animal was administrated with the test compounds. The test compounds were homogenized with mortar and pestle and suspended or diluted in 0.5% Methyl Cellulose to prepare 0.1-2.0 mg/mL/kg suspension and orally administered to rat using a syringe attached with a sonde. Post-dose mechanical sensitivities of the right and left hind paws were measured at approximately 1 to 5 hours after drug administration. Percent reversal of mechanical allodynia for each rat was calculated using the following formula. The analgesic effects of the compounds were compared.

[2] = target: human P2X3 receptor (Homo sapiens (Human), UniProt P56373); experiment: Evaluation of human P2X3 receptor inhibitory activity (Fluo-3 calcium fluorescence, FDSS 3000, ATP stimulation); format: cell-based;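 note: stimulus was 50 nM ATP with fluorescence followed for 3 min, and the response per well was peak post-ATP fluorescence divided by the reading at measurement start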
Chain of human P2X3 receptor (P56373 whole entry): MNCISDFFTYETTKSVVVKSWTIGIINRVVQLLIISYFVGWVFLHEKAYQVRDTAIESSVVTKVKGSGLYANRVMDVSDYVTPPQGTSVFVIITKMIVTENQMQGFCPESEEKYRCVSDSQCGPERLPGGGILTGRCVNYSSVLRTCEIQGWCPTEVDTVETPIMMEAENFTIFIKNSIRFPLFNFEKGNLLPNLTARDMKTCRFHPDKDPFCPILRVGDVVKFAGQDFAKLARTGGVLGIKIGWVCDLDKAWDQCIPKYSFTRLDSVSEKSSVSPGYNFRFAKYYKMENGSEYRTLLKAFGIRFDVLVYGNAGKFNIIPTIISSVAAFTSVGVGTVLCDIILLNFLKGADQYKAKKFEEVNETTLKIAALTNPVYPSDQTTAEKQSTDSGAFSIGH

[3] = human P2X3 receptor, Test Example 1
[4] = C6BU-1 cells stably expressing human P2X3 receptor, Fluo-3 fluorescence, FDSS 3000
[5] = C6BU-1 cells stably expressing human P2X3 receptor

Structure (SMILES) | IC50 [2, 3] [nM] | also measured
Cc1cc(/N=c2\[nH]c(=O)n([C@@H](C)[C@@H](C)C(=O)O)c(=O)n2Cc2ccc(Cl)cc2)ccc1OC(C)C [Compound I-0826] | 19 | inhibition in vivo at 3 mg/kg [1]: > 30%
Cc1ccc(Cn2c(=O)n([C@@H](C)[C@@H](C)C(=O)O)c(=O)[nH]/c2=N\c2ccc(OC(C)C)c(Cl)c2)cc1 [Compound I-0931] | – | inhibition in vivo at 3 mg/kg [1]: > 30%; IC50 [2, 4]: 12 nM
Cc1ccc(Cn2c(=O)n(C[C@H](C)C(=O)O)c(=O)[nH]/c2=N\c2ccc(CC(C)C)c(Cl)c2)cc1 [Compound I-1373] | – | inhibition in vivo at 3 mg/kg [1]: > 30%; IC50 [2, 5]: 4 nM
Cc1cc(Oc2ccc(/N=c3\[nH]c(=O)n(C[C@H](O)CO)c(=O)n3Cc3ccc(Cl)cc3)cc2)no1 [Compound I-1757] | – | inhibition in vivo at 3 mg/kg [1]: > 30%; IC50 [2, 4]: 12 nM
O=c1[nH]/c(=N\c2ccc(OCC3CC3)cc2)n(Cc2ccc(Cl)cc2)c(=O)n1CC(CO)CO [Compound I-1849] | – | inhibition in vivo at 3 mg/kg [1]: > 30%; IC50 [2, 4]: 7 nM
CCn1c(=O)[nH]/c(=N\c2ccc(Oc3ncc(C(=O)O)s3)cc2)n(Cc2ccc(Cl)cc2)c1=O [Compound I-2153] | – | inhibition in vivo at 3 mg/kg [1]: > 30%; IC50 [2, 5]: 6 nM
Cn1c(=O)[nH]/c(=N\c2ccc(Oc3cccc(C(=O)O)n3)cc2)n(Cc2ccc(Cl)cc2)c1=O [Compound I-2272] | 8 | inhibition in vivo at 3 mg/kg [1]: > 30%
CCn1c(=O)[nH]/c(=N\c2ccc(Oc3ccc(C(N)=O)nn3)cc2)n(Cc2ccc(Cl)cc2)c1=O [Compound I-2283] | < 4 | inhibition in vivo at 3 mg/kg [1]: > 30%
O=c1[nH]/c(=N\c2ccc(Oc3ccon3)cc2)n(Cc2ccc(Cl)cc2)c(=O)n1CCO [Compound I-2292] | 12 | inhibition in vivo at 3 mg/kg [1]: > 30%
O=c1[nH]/c(=N\c2ccc(Oc3ccon3)cc2)n(Cc2ccc(Cl)cc2)c(=O)n1C[C@H](O)CO [Compound I-2293] | 6 | inhibition in vivo at 3 mg/kg [1]: > 30%
O=C(O)Cn1c(=O)[nH]/c(=N\c2ccc(Oc3ccnnc3)cc2)n(Cc2ccc(Cl)cc2)c1=O [Compound I-2665] | 85 | –
COC(=O)CCn1c(=O)[nH]/c(=N\c2ccc(Oc3cccc(C#N)n3)cc2)n(Cc2ccc(Cl)cc2)c1=O [Compound I-2666] | 2 | –
N#Cc1cccc(Oc2ccc(/N=c3\[nH]c(=O)n(CCC(=O)O)c(=O)n3Cc3ccc(Cl)cc3)cc2)n1 [Compound I-2667] | 10 | –
Cc1ccc(Cn2c(=O)n(CCC(=O)O)c(=O)[nH]/c2=N\c2ccc(Oc3cc(C(=O)O)ccn3)cc2)cc1 [Compound I-2671] | 36 | –
CC(C)(O)Cn1c(=O)[nH]/c(=N\c2ccc(Oc3ccon3)cc2)n(Cc2ccc(Cl)cc2)c1=O [Compound I-2672] | 11 | –
CNC(=O)Cn1c(=O)[nH]/c(=N\c2ccc(Oc3ncns3)cc2)n(Cc2ccc(Cl)cc2)c1=O [Compound I-2673] | 7 | –
O=C(Cn1c(=O)[nH]/c(=N\c2ccc(Oc3ncns3)cc2)n(Cc2ccc(Cl)cc2)c1=O)NCCO [Compound I-2674] | 5 | –
NC(=O)Cn1c(=O)[nH]/c(=N\c2ccc(Oc3cnsn3)cc2)n(Cc2ccc(Cl)cc2)c1=O [Compound I-2675] | 13 | –
CNC(=O)Cn1c(=O)[nH]/c(=N\c2ccc(Oc3cnsn3)cc2)n(Cc2ccc(Cl)cc2)c1=O [Compound I-2676] | 13 | –
O=C(Cn1c(=O)[nH]/c(=N\c2ccc(Oc3cnsn3)cc2)n(Cc2ccc(Cl)cc2)c1=O)NCCO [Compound I-2677] | 7 | –
Cc1nsc(Oc2ccc(/N=c3\[nH]c(=O)n(CC(=O)NCCO)c(=O)n3Cc3ccc(Cl)cc3)cc2)n1 [Compound I-2678] | 3 | –
O=C(Cn1c(=O)[nH]/c(=N\c2ccc(Oc3cccc(F)n3)cc2)n(Cc2ccc(Cl)cc2)c1=O)NCCO [Compound I-2679] | 5 | –
O=C(Cn1c(=O)[nH]/c(=N\c2ccc(Oc3ccon3)cc2)n(Cc2ccc(Cl)cc2)c1=O)NCCO [Compound I-2680] | 12 | –
O=C(Cn1c(=O)[nH]/c(=N\c2ccc(Oc3ccon3)cc2)n(Cc2ccc(Cl)cc2)c1=O)NCC(F)(F)F [Compound I-2681] | 4 | –
COC(=O)CCn1c(=O)[nH]/c(=N\c2ccc(Oc3cccc(C(N)=O)n3)cc2)n(Cc2ccc(C)cc2)c1=O [Compound I-2682] | 2 | –
Cc1ccc(Cn2c(=O)n(CCC(=O)O)c(=O)[nH]/c2=N\c2ccc(Oc3cccc(C(N)=O)n3)cc2)cc1 [Compound I-2683] | 12 | –

Structure (SMILES) | IC50 [2, 3] [nM] | also measured
COC(=O)CCn1c(=O)[nH]/c(=N\c2ccc(Oc3cccc(C(N)=O)n3)cc2)n(Cc2ccc(Cl)cc2)c1=O [Compound I-2684] | 2 | –
O=c1[nH]/c(=N\c2ccc(Oc3cccc(O)n3)cc2)n(Cc2ccc(Cl)cc2)c(=O)n1CC(CO)CO [Compound I-2685] | 12 | –
NC(=O)Cn1c(=O)[nH]/c(=N\c2ccc(Oc3ncccn3)cc2)n(Cc2ccc(Cl)cc2)c1=O [Compound I-2686] | 36 | –
CNC(=O)Cn1c(=O)[nH]/c(=N\c2ccc(Oc3ncccn3)cc2)n(Cc2ccc(Cl)cc2)c1=O [Compound I-2687] | 35 | –
O=C(Cn1c(=O)[nH]/c(=N\c2ccc(Oc3ncccn3)cc2)n(Cc2ccc(Cl)cc2)c1=O)NCCO [Compound I-2688] | 18 | –
NC(=O)Cn1c(=O)[nH]/c(=N\c2ccc(Oc3cccnn3)cc2)n(Cc2ccc(Cl)cc2)c1=O [Compound I-2689] | 20 | –
CNC(=O)Cn1c(=O)[nH]/c(=N\c2ccc(Oc3cccnn3)cc2)n(Cc2ccc(Cl)cc2)c1=O [Compound I-2690] | 18 | –
O=C(Cn1c(=O)[nH]/c(=N\c2ccc(Oc3cccnn3)cc2)n(Cc2ccc(Cl)cc2)c1=O)NCCO [Compound I-2691] | 8 | –
O=c1[nH]/c(=N\c2ccc(Oc3cccnn3)cc2)n(Cc2ccc(Cl)cc2)c(=O)n1CC(CO)CO [Compound I-2692] | 8 | –
NC(=O)c1cccc(Oc2ccc(/N=c3\[nH]c(=O)n(CCC(=O)O)c(=O)n3Cc3ccc(Cl)cc3)cc2)n1 [Compound I-2693] | 12 | –
NC(=O)NC(=O)Cn1c(=O)[nH]/c(=N\c2ccc(Oc3ccon3)cc2)n(Cc2ccc(Cl)cc2)c1=O [Compound I-2694] | 3 | –
NC(=O)Cn1c(=O)[nH]/c(=N\c2ccc(Oc3ccnnc3)cc2)n(Cc2ccc(Cl)cc2)c1=O [Compound I-2695] | 10 | –
CNC(=O)Cn1c(=O)[nH]/c(=N\c2ccc(Oc3ccnnc3)cc2)n(Cc2ccc(Cl)cc2)c1=O [Compound I-2696] | 8 | –
Cc1nsc(Oc2ccc(/N=c3\[nH]c(=O)n(CCC(=O)O)c(=O)n3Cc3ccc(Cl)cc3)cc2)n1 [Compound I-2697] | 19 | –
O=C(O)CCn1c(=O)[nH]/c(=N\c2ccc(Oc3ncns3)cc2)n(Cc2ccc(Cl)cc2)c1=O [Compound I-2698] | 25 | –
CCn1c(=O)nc(Nc2ccc(Oc3ccc(C(=O)O)nn3)cc2)n(Cc2ccc(F)cc2)c1=O [Compound I-2699] | 134 | –
CCn1c(=O)[nH]/c(=N\c2ccc(Oc3ccc(C(=O)OC)cn3)cc2)n(C[C@H]2CC[C@H](C)CC2)c1=O [Compound I-2700] | 353 | –
CCn1c(=O)[nH]/c(=N\c2ccc(Oc3ccc(C(=O)OC)nn3)cc2)n(C[C@H]2CC[C@H](C)CC2)c1=O [Compound I-2701] | 1 | –
O=c1[nH]/c(=N\c2ccc(Oc3ccnc(Cl)c3)cc2)n(Cc2ccc(Cl)cc2)c(=O)n1CC(CO)CO [Compound I-2704] | 4 | –
O=c1[nH]/c(=N\c2ccc(Oc3ccnc(F)c3)cc2)n(Cc2ccc(Cl)cc2)c(=O)n1CC(CO)CO [Compound I-2705] | 3 | –
O=c1[nH]/c(=N\c2ccc(Oc3ncccc3F)cc2)n(Cc2ccc(Cl)cc2)c(=O)n1CC(CO)CO [Compound I-2706] | 6 | –
Cc1nsc(Oc2ccc(/N=c3\[nH]c(=O)n(C[C@H](O)CO)c(=O)n3Cc3ccc(F)cc3)cc2F)n1 [Compound I-2707] | 7 | –
Cc1nsc(Oc2ccc(/N=c3\[nH]c(=O)n(C[C@H](O)CO)c(=O)n3Cc3ccc(Cl)cc3)cc2F)n1 [Compound I-2708] | 2 | –
Cc1cncc(Oc2ccc(/N=c3\[nH]c(=O)n(CC(CO)CO)c(=O)n3Cc3ccc(Cl)cc3)cc2)n1 [Compound I-2709] | 6 | –
O=c1[nH]/c(=N\c2ccc(Oc3cnccn3)cc2)n(Cc2ccc(Cl)cc2)c(=O)n1CC(CO)CO [Compound I-2710] | 6 | –
